Here are results for 14 compounds from patent US8299086B2, “Pyrimidine derivatives” (Actelion Pharmaceuticals Ltd., priority 2007, dated 2012).

The target of the first assay is recombinant human S1P1 receptor (Homo sapiens, UniProt P21453). Description: GTPγS assay to determine EC50 values. The class given is biochemical. Particulars: 35S-GTPγS binding, membranes of CHO cells expressing recombinant human S1P1 receptor, pH 7.4. The method, then: GTPγS assay to determine EC50 values
Chain of recombinant human S1P1 receptor (P21453 whole entry): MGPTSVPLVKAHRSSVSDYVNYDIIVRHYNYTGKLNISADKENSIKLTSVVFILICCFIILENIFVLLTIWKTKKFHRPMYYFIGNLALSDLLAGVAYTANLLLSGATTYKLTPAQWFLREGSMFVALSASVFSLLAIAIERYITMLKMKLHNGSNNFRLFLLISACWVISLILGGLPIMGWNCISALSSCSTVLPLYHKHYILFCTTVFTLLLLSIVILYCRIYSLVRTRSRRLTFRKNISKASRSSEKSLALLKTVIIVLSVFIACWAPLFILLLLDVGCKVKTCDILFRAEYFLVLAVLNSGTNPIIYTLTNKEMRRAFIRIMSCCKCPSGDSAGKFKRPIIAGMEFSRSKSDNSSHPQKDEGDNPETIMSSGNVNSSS
GTPγS binding assays are performed in 96 well microtiter plates (Nunc, 442587) in a final volume of 200 μl, using membrane preparations of CHO cells expressing recombinant human S1P1 receptor. Assay conditions are 20 mM Hepes (Fluka, 54461), 100 mM NaCl (Fluka, 71378), 5 mM MgCl2 (Fluka, 63064), 0.1% BSA (Calbiochem, 126609), 1 μM GDP (Sigma, G-7127), 2.5% DMSO (Fluka, 41644), […] ^35S-GTPγS (Amersham Biosciences, SJ1320). The pH is 7.4. Test compounds are dissolved and diluted in 100% DMSO and pre-incubated at room temperature for 30 min in 150 μl of the above assay buffer, in the absence of ^35S-GTPγS. After addition of 50 μl of ^35S-GTPγS, the assay is incubated for 1 h at rt. The assay is terminated by transfer of the reaction mixture to a Multiscreen plate (Millipore, MAHFC1H60) using a cell harvester from Packard Biosciences, and the plates are washed with ice-cold 10 mM Na2HPO4/NaH2PO4 (70%/30%), dried, sealed at the bottom and, after addition of 25 μl MicroScint20 (Packard Biosciences, order#6013621), sealed on the top. Membrane-bound ^35S-GTPγS is measured with a TopCount from Packard Biosciences.
EC50 is the concentration of agonist inducing 50% of the maximal specific ^35S-GTPγS binding. Specific binding is determined by subtracting non-specific binding from maximal binding. Maximal binding is the amount of cpm bound to the Multiscreen plate in the presence of 10 μM of S1P. Non-specific binding is the amount of binding in the absence of an agonist in the assay.
As usually defined, the EC50 is the midpoint of the concentration-response curve. In the case of `CCNc1nc(C)cc(-c2nc(-c3cc(C)c(OC[C@@H](O)CNC(=O)CO)c(CC)c3)no2)n1` [Example 1, N—((S)-3-{2-Ethyl-4-[5-(2-ethylamino-6-methyl-pyrimidin-4-yl)-[1,2,4]oxadiazol-3-yl]-6-methyl-phenoxy}-2-hydroxy-propyl)-2-hydroxy-acetamide], the EC50 amounted to 1.15 nM.

The subject of a further assay is circulating lymphocytes. Description: Assessment of in vivo efficacy: circulating lymphocytes after oral administration. More on the design: species or system Wistar rats. Particulars: Rattus norvegicus, Lymphocyte, po, 6 h, read-out: Lymphocyte counts. The method, then: Assessment of In vivo Efficacy
The efficacy of the compounds of formula (I) is assessed by measuring the circulating lymphocytes after oral administration of 3 to 30 mg/kg of a compound of formula (I) to normotensive male Wistar rats. The animals are housed in climate-controlled conditions with a 12 h-light/dark cycle, and have free access to normal rat chow and drinking water. Blood is collected before and 3, 6 and 24 h after drug administration. Full blood is subjected to hematology using Advia Hematology system (Bayer Diagnostics, Zurich, Switzerland).
All data are presented as mean±SEM. Statistical analyses are performed by analysis of variance (ANOVA) using Statistica (StatSoft) and the Student-Newman-Keuls procedure for multiple comparisons. The null hypothesis is rejected when p<0.05.
In the case of `CCc1cc(-c2noc(-c3cc(C)nc(NC(C)C)n3)n2)cc(C)c1OC[C@@H](O)CO` [Example 59, (S)-3-{2-ethyl-4-[5-(2-isopropylamino-6-methyl-pyrimidin-4-yl)-[1,2,4]oxadiazol-3-yl]-6-methyl-phenoxy}-propane-1,2-diol], the change in vivo at 10 mg/kg is -69 ± 2%. Still for that read-out and setting: the figure for `COc1cc(-c2noc(-c3cc(C)nc(NC(C)C)n3)n2)cc(C)c1OC[C@@H](O)CNC(=O)CO` [Example 51, 2-hydroxy-N—((S)-2-hydroxy-3-{4-[5-(2-isopropylamino-6-methyl-pyrimidin-4-yl)-[1,2,4]oxadiazol-3-yl]-2-methoxy-6-methyl-phenoxy}-propyl)-acetamide] is -61 ± 2%.

The assay is the same for the next values; noted with them: Rattus norvegicus, Lymphocyte; 6 h after oral administration of 10 mg/kg to normotensive male Wistar rats, compared to animals treated with vehicle only; mean±SEM; read-out: Lymphocyte counts.
In the case of `CCc1cc(-c2noc(-c3cc(C)nc(N(CC)CC)n3)n2)cc(C)c1OC[C@@H](O)CNC(=O)CO` [Example 3, N—((S)-3-{4-[5-(2-Diethylamino-6-methyl-pyrimidin-4-yl)-[1,2,4]oxadiazol-3-yl]-2-ethyl-6-methyl-phenoxy}-2-hydroxy-propyl)-2-hydroxy-acetamide], the change in vivo at 10 mg/kg is -70 ± 2%. For the compound `CCNc1nc(CC)cc(-c2nc(-c3cc(C)c(OC[C@@H](O)CNC(=O)CO)c(CC)c3)no2)n1` [Example 33, N—((S)-3-{2-ethyl-4-[5-(6-ethyl-2-ethylamino-pyrimidin-4-yl)-[1,2,4]oxadiazol-3-yl]-6-methyl-phenoxy}-2-hydroxy-propyl)-2-hydroxy-acetamide], the change in vivo at 10 mg/kg is -65 ± 2%. Same read-out and setting: the figure for `CCNc1nc(C)cc(-c2nc(-c3cc(C)c(OC[C@@H](O)CNC(=O)CO)c(CC)c3)no2)n1` [Example 1, N—((S)-3-{2-Ethyl-4-[5-(2-ethylamino-6-methyl-pyrimidin-4-yl)-[1,2,4]oxadiazol-3-yl]-6-methyl-phenoxy}-2-hydroxy-propyl)-2-hydroxy-acetamide] is -70 ± 3%; for `CCN(CC)c1nc(C)cc(-c2nc(-c3cc(C)c(OCC(O)CNC(=O)CO)c(C)c3)no2)n1` (racemic) [Example 10, rac-N-(3-{4-[5-(2-Diethylamino-6-methyl-pyrimidin-4-yl)-[1,2,4]oxadiazol-3-yl]-2,6-dimethyl-phenoxy}-2-hydroxy-propyl)-2-hydroxy-acetamide] it is -50 ± 2%; for `CCc1cc(-c2noc(-c3cc(C)nc(NC(C)C)n3)n2)cc(C)c1CCC(=O)NCCO` [Example 138, 3-{2-ethyl-4-[5-(2-isopropylamino-6-methyl-pyrimidin-4-yl)-[1,2,4]oxadiazol-3-yl]-6-methyl-phenyl}-N-(2-hydroxy-ethyl)-propionamide] it is -74 ± 1%. On the same count and under the same terms, as for `CCc1cc(-c2noc(-c3cc(C)nc(NCC4CC4)n3)n2)cc(C)c1OC[C@@H](O)CNC(=O)CO` [Example 32, N—[(S)-3-(4-{5-[2-(cyclopropylmethyl-amino)-6-methyl-pyrimidin-4-yl]-[1,2,4]oxadiazol-3-yl}-2-ethyl-6-methyl-phenoxy)-2-hydroxy-propyl]-2-hydroxy-acetamide], the figure is -58 ± 1%; as for `CCNc1nc(C)cc(-c2nc(-c3cc(C)c(OCC(O)CO)c(C)c3)no2)n1` (racemic) [Example 16, rac-3-{4-[5-(2-Ethylamino-6-methyl-pyrimidin-4-yl)-[1,2,4]oxadiazol-3-yl]-2,6-dimethyl-phenoxy}-propane-1,2-diol], -74 ± 1%; as for `CCc1cc(-c2noc(-c3cc(C)nc(OCC(C)C)n3)n2)cc(C)c1OC[C@@H](O)CNC(=O)CO` [Example 40, N—((S)-3-{2-ethyl-4-[5-(2-isobutoxy-6-methyl-pyrimidin-4-yl)-[1,2,4]oxadiazol-3-yl]-6-methyl-phenoxy}-2-hydroxy-propyl)-2-hydroxy-acetamide], -69 ± 2%. The same measure, in the same setting: the figure for `CCNc1nc(CC)cc(-c2nc(-c3cc(C)c(OC[C@@H](O)CO)c(CC)c3)no2)n1` [Example 65, (S)-3-{2-ethyl-4-[5-(6-ethyl-2-ethylamino-pyrimidin-4-yl)-[1,2,4]oxadiazol-3-yl]-6-methyl-phenoxy}-propane-1,2-diol] is -60 ± 4%; for `Cc1cc(-c2nc(-c3cc(C)c(OCC(O)CO)c(C)c3)no2)nc(NCC(C)C)n1` (racemic) [Example 20, rac-3-{4-[5-(2-Isobutylamino-6-methyl-pyrimidin-4-yl)-[1,2,4]oxadiazol-3-yl]-2,6-dimethyl-phenoxy}-propane-1,2-diol] it is -55 ± 1%.

For `CCc1cc(-c2noc(-c3cc(C)nc(N(C)CC(C)C)n3)n2)cc(C)c1OC[C@@H](O)CNC(=O)CO` [Example 29, N—[(S)-3-(2-ethyl-4-{5-[2-(isobutyl-methyl-amino)-6-methyl-pyrimidin-4-yl]-[1,2,4]oxadiazol-3-yl}-6-methyl-phenoxy)-2-hydroxy-propyl]-2-hydroxy-acetamide], the change in vivo at 10 mg/kg is -73 ± 2%. Same read-out and setting: as for `CCc1cc(-c2nc(-c3cc(C)nc(NC(C)C)n3)no2)cc(C)c1OC[C@@H](O)CNC(=O)CO` [Example 85, (S)—N-(3-{2-Ethyl-4-[3-(2-isopropylamino-6-methyl-pyrimidin-4-yl)-[1,2,4]oxadiazol-5-yl]-6-methyl-phenoxy}-2-hydroxy-propyl)-2-hydroxy-acetamide], the figure is -68 ± 1%.
